The values below come from ChEMBL document CHEMBL5380853, “Lead Optimization of Androgen Receptor-HSP27 Disrupting Agents in Glioblastoma” (J Med Chem, 2023).

For one experiment, the system named is U-87 MG. In words: Growth inhibition of AR-overexpressing human U87 cells measured after 48 hrs by MTT assay. The format is functional, cell-based, U-87MG ATCC.
For another experiment, the system named is T98G. In words: Growth inhibition of AR-overexpressing human T98G cells measured after 48 hrs by MTT assay. The format is functional, cell-based.

Where only a bound is given, the exact number is not on record here.

For the compound `COc1ccc(OC)c(COc2cc(NC(=O)COCC(=O)Nc3ccc(NS(C)(=O)=O)c(OCc4cc(OC)ccc4OC)c3)ccc2NS(C)(=O)=O)c1`, the IC50 with U-87 MG and in the experiment with T98G was more than 10000 nM in each case.
For the compound `COc1ccc(OC)c(COc2cc(NC(=O)c3ccc(OC)c(OC)c3)ccc2NS(C)(=O)=O)c1`, the IC50 with U-87 MG was 220 nM; in the experiment with T98G, 90 nM.
`COc1ccc(OC)c(COc2cc(NC(=O)c3ccc(Cl)c(Cl)c3)ccc2NS(C)(=O)=O)c1`: the figures for the IC50 in the experiment with U-87 MG and in the experiment with T98G were 476 nM and 2380 nM, respectively.
The matching figures for `COc1ccc(OC)c(COc2cc(NC(=O)c3cccc(C#N)c3)ccc2NS(C)(=O)=O)c1`: 1890 nM and 5030 nM.
The corresponding values for `COc1ccc(OC)c(COc2cc(NC(=O)c3ccc(I)cc3)ccc2NS(C)(=O)=O)c1` are 46 nM and 48 nM.
With `COc1ccc(OC)c(COc2cc(NC(=O)c3cccc([N+](=O)[O-])c3)ccc2NS(C)(=O)=O)c1`, the IC50 in the experiment with U-87 MG worked out at 2040 nM; in the experiment with T98G, 5070 nM.
Turning to `COc1ccc(OC)c(COc2cc(NC(=O)c3ccc(-c4ccccc4)cc3)ccc2NS(C)(=O)=O)c1`, the IC50 was 6910 nM with U-87 MG and 455 nM in the experiment with T98G.
As to `COc1ccc(OC)c(COc2cc(NC(=O)c3ccc(C)c([N+](=O)[O-])c3)ccc2NS(C)(=O)=O)c1`, the IC50 in the experiment with U-87 MG stood at 2630 nM; in the experiment with T98G it was 3690 nM.
`COc1ccc(OC)c(COc2cc(NC(=O)c3ccc(C#N)cc3)ccc2NS(C)(=O)=O)c1`: the figures for the IC50 in the experiment with U-87 MG and in the experiment on T98G were 2880 nM and 790 nM, respectively.
The corresponding values for `COc1ccc(OC)c(COc2cc(NC(=O)c3ccc(C)cc3)ccc2NS(C)(=O)=O)c1` are 91 nM and 213 nM.
The corresponding values for `COc1ccc(OC)c(COc2cc(NC(=O)c3ccc(C(F)(F)F)cc3)ccc2NS(C)(=O)=O)c1` are 2080 nM and more than 10000 nM.
The corresponding values for `COc1ccc(OC)c(COc2cc(NC(=O)c3cccc(Cl)c3)ccc2NS(C)(=O)=O)c1` are more than 10000 nM and 65 nM.
Consider `COc1ccc(OC)c(COc2cc(NC(=O)c3cc(OC)c(OC)c(OC)c3)ccc2NS(C)(=O)=O)c1`, for which the IC50 was found to be 3370 nM with U-87 MG and 218 nM with T98G.
The matching figures for `CCCCCC(=O)Nc1ccc(NS(C)(=O)=O)c(OCc2cc(OC)ccc2OC)c1`: 2040 nM and 1190 nM.
The corresponding values for `COc1ccc(OC)c(COc2cc(NC(=O)c3ccc(Cl)c([N+](=O)[O-])c3)ccc2NS(C)(=O)=O)c1` are more than 10000 nM and 570 nM.
For the compound `COc1ccc(OC)c(COc2cc(NC(=O)OCCOCCOCCOC(=O)Nc3ccc(NS(C)(=O)=O)c(OCc4cc(OC)ccc4OC)c3)ccc2NS(C)(=O)=O)c1`, the figures for the half-inhibitory concentration (IC50) in the experiment on U-87 MG and in the experiment on T98G were more than 10000 nM and 5470 nM, respectively.
The matching figures for `COc1ccc(OC)c(COc2cc(NC(=O)c3ccc(C(F)(F)F)cc3C(F)(F)F)ccc2NS(C)(=O)=O)c1`: 1710 nM and 2360 nM.
The matching figures for `COc1ccc(OC)c(COc2cc(NC(=O)c3cc(Cl)cc(Cl)c3)ccc2NS(C)(=O)=O)c1`: 150 nM and 97 nM.
The matching figures for `COc1ccc(OC)c(COc2cc(NC(=O)c3cccc(C(F)(F)F)c3)ccc2NS(C)(=O)=O)c1`: 998 nM and 423 nM.
In the case of `COc1ccc(OC)c(COc2cc(NC(=O)c3ccc(N)cc3)ccc2NS(C)(=O)=O)c1`, the figures for the IC50 with U-87 MG and in the experiment with T98G were 2060 nM and 3610 nM, respectively.
The corresponding values for `CCOc1cccc(C(=O)Nc2ccc(NS(C)(=O)=O)c(OCc3cc(OC)ccc3OC)c2)c1` are 3830 nM and 38.4 nM.
The corresponding values for `COc1ccc(OC)c(COc2cc(NC(=O)c3ccc(Br)cc3)ccc2NS(C)(=O)=O)c1` are 155 nM and 148 nM.
The matching figures for `COc1cccc(C(=O)Nc2ccc(NS(C)(=O)=O)c(OCc3cc(OC)ccc3OC)c2)c1`: 8310 nM and 220 nM.
For `COc1ccc(OC)c(COc2cc(NC(=O)c3cccc(I)c3)ccc2NS(C)(=O)=O)c1`, the values for the IC50 in the experiment with U-87 MG and with T98G were 210 nM and 130 nM, respectively.
